Reference: ChEMBL document CHEMBL4385661, “An investigation of targeted inhibition of transcription factor activity with pyrrole imidazole polyamide (PA) in chronic myeloid leukemia (CML) blast crisis cells” (2019)
Activity calls are given as the source filed them. No cut-off for these calls is given here.

How the values were obtained:
KCL-22 [1] = experiment: Inhibition of cell expansion in human KCL22 cells at 0.3 to 3 uM incubated for 48 hrs by trypan blue dye exclusion counting method; assay type: functional, cell-based
KCL-22 [2] = experiment: Inhibition of cell expansion in human KCL22 cells at 3 uM incubated for 48 hrs in presence of 10 nM nilotinib by trypan blue dye exclusion counting method; assay type: functional, cell-based
KCL-22 [3] = experiment: Induction of cell cycle arrest in human KCL22 cells assessed as accumulation at G0-G1 phase at 3 uM incubated for 72 hrs by propidium iodide staining based flow cytometry analysis (reference value: 57.4%); assay type: functional
KCL-22 [4] = experiment: Induction of cell cycle arrest in human KCL22 cells assessed as accumulation at subG0 phase at 3 uM incubated for 72 hrs by propidium iodide staining based flow cytometry analysis (reference value: 3.91%); assay type: functional
KCL-22 [5] = experiment: Induction of cell cycle arrest in human KCL22 cells assessed as accumulation at S phase at 3 uM incubated for 72 hrs by propidium iodide staining based flow cytometry analysis (reference value: 23.7%); assay type: functional
KCL-22 [6] = experiment: Induction of cell cycle arrest in human KCL22 cells assessed as accumulation at G2-M phase at 3 uM incubated for 72 hrs by propidium iodide staining based flow cytometry analysis (reference value: 14%); assay type: functional
KCL-22 [7] = experiment: Inhibition of cell expansion in human KCL22 cells assessed as combination index at 3 uM incubated for 48 hrs in presence of 10 nM nilotinib by trypan blue dye exclusion counting method; assay type: functional
Homo sapiens [8] = species on record: Homo sapiens; experiment: Binding affinity to E2F1 consensus sequence DNA in human KCL22 cells assessed as reduction in MRRF gene expression at 3 uM incubated for 24 hrs by RT-qPCR analysis relative to control; assay type: cell-based
Homo sapiens [9] = species on record: Homo sapiens; experiment: Binding affinity to E2F1 consensus sequence DNA in human KCL22 cells assessed as reduction in MCM2 gene expression at 3 uM incubated for 24 hrs by RT-qPCR analysis relative to control; assay type: cell-based
Homo sapiens [10] = species on record: Homo sapiens; experiment: Binding affinity to E2F1 consensus sequence DNA in human KCL22 cells assessed as reduction in SF3B4 gene expression at 3 uM incubated for 24 hrs by RT-qPCR analysis relative to control; assay type: cell-based
Homo sapiens [11] = species on record: Homo sapiens; experiment: Binding affinity to E2F1 consensus sequence DNA in human KCL22 cells assessed as reduction in GNA13 gene expression at 3 uM incubated for 24 hrs by RT-qPCR analysis relative to control; assay type: cell-based
Homo sapiens [12] = species on record: Homo sapiens; experiment: Binding affinity to E2F1 consensus sequence DNA in human KCL22 cells assessed as reduction in PSMB8 gene expression at 3 uM incubated for 24 hrs by RT-qPCR analysis relative to control; assay type: cell-based
Homo sapiens [13] = species on record: Homo sapiens; experiment: Binding affinity to E2F1 consensus sequence DNA in human KCL22 cells assessed as reduction in PET112L gene expression at 3 uM incubated for 24 hrs by RT-qPCR analysis relative to control; assay type: cell-based
Homo sapiens [14] = species on record: Homo sapiens; experiment: Binding affinity to E2F1 consensus sequence DNA in human KCL22 cells assessed as reduction in ZNF354B gene expression at 3 uM incubated for 24 hrs by RT-qPCR analysis relative to control; assay type: cell-based
KCL-22 [15] = experiment: Up-regulation of TRIM45 gene expression in human KCL22 cells at 3 uM incubated for 24 hrs by RT-qPCR analysis relative to control; assay type: functional, cell-based
KCL-22 [16] = experiment: Up-regulation of RARS2 gene expression in human KCL22 cells at 3 uM incubated for 24 hrs by RT-qPCR analysis relative to control; assay type: functional, cell-based
KCL-22 [17] = experiment: Inhibition of cell expansion in human KCL22 cells at 10 nM incubated for 48 hrs by trypan blue dye exclusion counting method; assay type: functional, cell-based

Compound	inhibition (KCL-22 [1])	inhibition (KCL-22 [2])	Activity (KCL-22 [3])	Activity (KCL-22 [4])	Activity (KCL-22 [5])	Activity (KCL-22 [6])	CI (KCL-22 [7])	Activity (Homo sapiens [8])	Activity (Homo sapiens [9])	Activity (Homo sapiens [10])	Activity (Homo sapiens [11])	Activity (Homo sapiens [12])	Activity (Homo sapiens [13])	Activity (Homo sapiens [14])	Activity (KCL-22 [15])	Activity (KCL-22 [16])	inhibition (KCL-22 [17])
CN(C)CCCNC(=O)c1cc(NC(=O)c2cc(NC(=O)c3cc(NC(=O)c4cc(NC(=O)[C@H](N)CCNC(=O)c5nc(NC(=O)c6nc(NC(=O)c7cc(NC(=O)c8nccn8C)cn7C)cn6C)cn5C)cn4C)cn3C)cn2C)cn1C	Active	Active	58.1%	3.84%	26.4%	10.8%	>1	Active	Active	Active	Active	Active	Active	Active	Active	Active	–
Cc1cn(-c2cc(NC(=O)c3ccc(C)c(Nc4nccc(-c5cccnc5)n4)c3)cc(C(F)(F)F)c2)cn1	–	–	–	–	–	–	–	–	–	–	–	–	–	–	–	–	Active
